From the NIST ThermoML archive (doi:10.1016/j.tca.2009.04.012)
± gives the expanded uncertainty stated by the source.

Legend:
[1] = molar heat capacity at constant pressure; conditions: 298.15 K, 101.33 kPa, Small sample (50 mg) DSC
[2] = Molar enthalpy of transition or fusion; conditions: Crystal; DSC
[3] = for Normal melting temperature: DTA; for mass density: 298.15 K, 101.33 kPa

molar heat capacity at constant pressure ([1]; Crystal) | Molar enthalpy of transition or fusion [2] | Normal melting temperature ([3]; Crystal) | molar heat capacity at constant pressure ([1]; Liquid) | mass density ([3]; Liquid) | mass density ([3]; Crystal) | SMILES
132.04 ± 6.5 J/K/mol | 3.37 ± 0.263 kcal/mol | 89.82 ± 0.4 °C |  |  |  | CC(=O)c1ccc[nH]1 [2-acetylpyrrole]
 |  |  | 210.72 ± 10 J/K/mol | 1171 ± 5 kg/m3 |  | CC(=O)c1cccs1 [2-acetylthiophene]
140.94 ± 6.6 J/K/mol | 3.71 ± 0.165 kcal/mol | 28.47 ± 0.4 °C |  |  | 1098 ± 5 kg/m3 | CC(=O)c1ccco1 [2-acetylfuran]
